We go through one molecule from PMC9607644, “Glycoconjugation of Quinoline Derivatives Using the C-6 Position in Sugars as a Strategy for Improving the Selectivity and Cytotoxicity of Functionalized Compounds” (Molecules, 2022).

Holding throughout (type): cell-based, human
In assay [1] the test system is MCF-7 cells. Put plainly: MTT viability with GLUT1 inhibitor EDG, MCF-7. The following applies: 100 µM EDG, 72 h. As to the method: (§1) To investigate the possible interaction of the tested compounds with glucose receptors and thus to check whether they target the Warburg effect, tests of the influence of the presence of the GLUT inhibitor on the effectiveness of the glycoconjugates were carried out. For this, cells were treated each time with the test compounds in the presence of 100 µM of the GLUT1 inhibitor 4,6-O-ethylidene-α-D-glucose (EDG).

Assay [2] concerns MCF-7 cells. Put plainly: Annexin V-FITC/PI apoptosis flow cytometry, MCF-7. The following applies: IC50 dose, 24 h. The text has this:
(§2) Apoptosis is a natural biological process involving programmed cell death and plays an important role in maintaining correct homeostasis between cell proliferation and cell death. This is in contrast to necrosis, which is accompanied by acute inflammation, preceded by cell degradation due to the loss of the integrity of the cell membrane. It is possible to distinguish viable cells from apoptotic and necrotic cell fractions using Annexin V-FITC and Propidium Iodide (PI). Annexin V-FITC labels phosphatidylserine residues that, after the start of apoptosis, are located on the outer surface of the cell membrane, enabling the identification of cells in the early stages of apoptosis. PI binds stoichiometrically to intracellular DNA during late apoptosis and necrosis when the cell membrane has been damaged. This combination allows for the differentiation of early apoptotic (A+/P−), late apoptotic (A+/P+), necrosis (A−/P+), and normal (A−/P−) cells that can be quantified by flow cytometry.
(§3) The cell cycle and the type of cell death induced by the test compounds were measured by using flow cytometry according to the manufacturer’s protocol. […] Control cells were grown with fresh medium supplemented with 0.5% DMSO. After 24 h of incubation, the cells were collected by trypsinization. Then, samples were centrifuged (3 min, 2000 rpm, RT) and washed with PBS, after which the cells were centrifuged again (3 min, 2000 rpm, RT) and the supernatant was carefully removed. The resulting precipitate contained cells, which were used for flow cytometry experiments.
(§4) The fraction of dead cells after treatment with the test compounds were detected using the FITC Annexin-V Apoptosis Detection Kit with PI (BioLegend, San Diego, CA, USA). […] 250 μL of the Annexin-V Binding Buffer was then added and the samples were incubated in the dark on ice for 15 min.
In general terms: Flow cytometry measures light scatter and fluorescence of single cells or particles in a stream.

The test system of assay [3] is HCT-116 cells. Put plainly: MTT viability with GLUT1 inhibitor EDG, HCT-116. The following applies: 100 µM EDG, 72 h. The protocol: as §1
For another assay, the system named is NHDF-Neo cells. Put plainly: Cell cycle analysis by flow cytometry, NHDF-Neo. Particulars: IC50 dose, 24 h. The source says: After determining the type of cell death caused by the test compounds, the flow cytometry technique was used to study their influence on potential changes in the course of the cell cycle of the HCT-116, MCF-7, and NHDF-Neo lines. The cell cycle is the sequence of growth and division of cells, both normal and cancerous. This process begins from the resting phase (G0) through the active growth phases (G1, S, G2), leading to mitosis (M) in which the cell’s nucleus divides. […] After this time, cells were harvested and treated with a buffer to lysate the cells and isolate the cell nuclei. Propidium iodide was used to assess the amount of DNA in particular phases of the cell cycle. Histograms of DNA content in cells are presented in the Supplementary Materials (Figure S74).
The cell cycle and the type of cell death induced by the test compounds were measured by using flow cytometry according to the manufacturer’s protocol. The cells were seeded into 6-well plates at a density of 3 × 10^5 (HCT-116) or 4 × 10^5 (MCF-7, NHDF-Neo) per well (3 mL) and allowed to attach for 24 h under standard conditions with 5% CO2 at 37 °C. The following day, the medium was removed and cells were treated with solutions of test compounds in fresh medium at a dose equal to their IC50 values. Control cells were grown with fresh medium supplemented with 0.5% DMSO. After 24 h of incubation, the cells were collected by trypsinization. Then, samples were centrifuged (3 min, 2000 rpm, RT) and washed with PBS, after which the cells were centrifuged again (3 min, 2000 rpm, RT) and the supernatant was carefully removed. The resulting precipitate contained cells, which were used for flow cytometry experiments.
For cell cycle analysis, the cells were suspended in 300 μL of hypotonic buffer (consisting of: sodium citrate dihydrate 1 g/L, propidium iodide (PI) 1 mg/mL, RNAse A 10 mg/mL (EURx, Gdańsk, Poland), Triton X-100 1:9), mixed gently and incubated in the dark at room temperature for 20–30 min. […]

Assay [4] deals with HCT-116 cells. Put plainly: Annexin V-FITC/PI apoptosis flow cytometry, HCT-116. The following applies: IC50 dose, 24 h.
Excerpt: as §2, §3, §4

Regarding `Oc1cccc2cccnc12` [Compound 8HQ, 8-hydroxyquinoline, reference compound], in the assay on MCF-7 cells [1], the “effect of EDG inhibitor in words, MCF-7” value is “did not have any effect on the cellular uptake”. For the same molecule, the “apoptosis induction in words, MCF-7” value in the assay on MCF-7 cells [2] is reported as “results were similar to the control fraction”. In addition, in the assay on HCT-116 cells [3], the “effect of EDG inhibitor in words, HCT-116” value was “did not have any effect on the cellular uptake”. Also, in the assay with NHDF-Neo cells, the “cell cycle phase distribution in words, NHDF-Neo” value is reported as “subG1 phase increasing”. The “apoptosis induction in words, HCT-116” value in the assay with HCT-116 cells [4] is given as “results were similar to the control fraction”.
